Assay results taken from patent publication US20120165319A1, “INHIBITORS OF INTERLEUKIN-1 BETA CONVERTING ENZYME” (VERTEX PHARMACEUTICALS INCORPORATED, priority 1995, published 2012).

How the values were obtained:
U937 cells = assay: Fas-induced apoptosis in U937 cells; settings: anti-Fas-induced apoptosis, U937 cells, 20 μM
Experimental: Fas-Induced Apoptosis in U937 cells. Compounds were evaluated for their ability to block anti-Fas-induced apopotosis. […] We used this cell line for apoptosis studies. U937 cells were seeded in culture at 1×10^5 cells/ml and grown to ˜5×10^6 cells/ml. For apoptosis experiments, 2×10^6 cells were plated in 24-well tissue culture plates in 1 ml RPMI-1640-10% FBS and stimulated with 100 ng/ml anti-Fas antigen antibody (Medical and Biological Laboratories, Ltd.). After a 24 hr incubation at 37° C., the percentage of apoptotic cells was determined by FACS analysis using ApoTag reagents.

CPP32 = biological target: T1, CPP32 (Homo sapiens, UniProt P42574); assay: Inhibition of ICE homologs: CPP32 (DEVD-AMC substrate)
T1 sequence (P42574 29-175 limits assumed): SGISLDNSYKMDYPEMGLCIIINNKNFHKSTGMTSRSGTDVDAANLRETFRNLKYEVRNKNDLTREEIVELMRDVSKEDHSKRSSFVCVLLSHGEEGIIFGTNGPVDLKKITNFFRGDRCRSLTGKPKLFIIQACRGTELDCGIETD
T1 sequence (P42574 176-277 limits assumed): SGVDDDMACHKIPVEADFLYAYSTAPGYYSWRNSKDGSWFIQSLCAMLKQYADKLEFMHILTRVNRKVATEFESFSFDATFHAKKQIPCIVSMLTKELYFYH

TX = biological target: T2, TX (Homo sapiens, UniProt P49662); assay: Inhibition of ICE homologs: TX; type: biochemical; settings: ICE substrate, conditions identical to ICE (Table 1)
T2 construct: made in house; host or cells: Spodoptera frugiperda (Sf9) insect cells, recombinant baculovirus (pVL1393/TX)
T2 sequence (P49662 81-270 limits assumed): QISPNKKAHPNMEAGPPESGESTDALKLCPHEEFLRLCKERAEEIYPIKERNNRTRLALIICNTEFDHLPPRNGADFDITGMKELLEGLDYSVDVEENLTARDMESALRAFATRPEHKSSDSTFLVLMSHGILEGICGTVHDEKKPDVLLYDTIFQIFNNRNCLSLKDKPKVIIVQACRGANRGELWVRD
T2 sequence (P49662 290-377 limits assumed): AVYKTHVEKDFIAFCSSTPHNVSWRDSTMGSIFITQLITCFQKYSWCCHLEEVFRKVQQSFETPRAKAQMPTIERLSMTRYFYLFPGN
Source text: Expression of TX in insect cells using a baculovirus expression system. We have subcloned Tx cDNA (Faucheu et al., supra 1995) into a modified pVL1393 transfer vector, co-transfected the resultant plasmid (pVL1393/TX) into insect cells with viral DNA and identified the recombinant baculovirus. After the generation of high titer recombinant virus stock, the medium was examined for TX activity using the visible ICE assay. […] ICE was used as a standard in the assay.
(§1) The selectivity of a panel of reversible inhibitors for ICE homologs is depicted in Table 1. ICE enzyme assays were performed according to Wilson et al (supra 1994) using a YVAD-AMC substrate (Thornberry et al, supra 1992). Assay of TX activity was performed using the ICE substrate under identical conditions to ICE. Assay of CPP32 was performed using a DEVD-AMC substrate (Nicholson et al., supra 1995). In general, there is low selectivity between ICE and TX for a wide range of scaffolds. None of the synthetic ICE compounds tested are effective inhibitors of CPP32.
(§2) Second-order rate constants for inactivation of ICE and ICE homologs with selected irreversible inhibitors are presented below (Table 2). The irreversible compounds studied are broad spectrum inhibitors of ICE and its homologs. Some selectivity, however, is observed with the irreversible compounds comparing inhibition of ICE and CPP32.

[1] = Measurement of blood levels of prodrugs of 214e after p.o. dosing in mice; type: in vivo, mouse
Experimental: Measurement of Blood Levels of Prodrugs of 214e
Mice were administered a p.o. dose of compounds 302 and 304a (50 mg/kg) prepared in 0.5% carboxymethylcellulose. Blood samples were collected at 1 and 7 hours after dosing. Serum was extracted by precipitation with an equal volume of acetonitrile containing 2% formic acid followed by centrifugation. The supernatant was analyzed by liquid chromatography-mass spectrometry (ESI-MS) with a detection level of 0.03 to 3 μg/ml.

ICE = biological target: T3, ICE (Homo sapiens, UniProt P29466); assay: Enzyme assay with fluorescent substrate (Acetyl-Tyr-Val-Ala-Asp-AMC); Ki and second order rate constants kinact; type: biochemical; settings: YVAD-AMC substrate; reversible inhibitors (Table 1)
T3 sequence (P29466 120-297 limits assumed): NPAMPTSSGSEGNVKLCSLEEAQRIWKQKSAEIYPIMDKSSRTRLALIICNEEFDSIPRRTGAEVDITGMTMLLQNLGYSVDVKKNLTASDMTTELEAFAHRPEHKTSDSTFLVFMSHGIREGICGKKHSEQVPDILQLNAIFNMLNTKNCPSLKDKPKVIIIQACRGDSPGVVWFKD
T3 sequence (P29466 317-404 limits assumed): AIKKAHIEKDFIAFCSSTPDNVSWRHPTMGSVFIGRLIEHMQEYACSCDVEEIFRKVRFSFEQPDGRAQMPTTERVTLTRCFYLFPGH
Experimental: 2. Enzyme Assay with Fluorescent Substrate
This assay is run essentially according to Thornberry et al. (Nature 356: 768-774 (1992)), using substrate 17 referenced in that article. The substrate is: Acetyl-Tyr-Val-Ala-Asp-amino-4-methylcoumarin (AMC). The following components are mixed:
The assay is run in a 96 well microtiter plate. Buffer and ICE are added to the wells. The components are left to incubate at 37° C. for 15 minutes in a temperature-controlled wellplate. After the 15 minute incubation, the reaction is started by adding substrate directly to the wells and the reaction is monitored @37° C. for 30 minutes by following the release of the AMC fluorophore using an excitation wavelength for 380 nm and an emission wavelength of 460 nm. A linear fit of the data for each well is performed and a rate is determined in fluorescence units per second.
For determination of enzyme inhibition constants (Ki) or the mode of inhibition (competitive, uncompetitive or noncompetitive), the rate data determined in the enzyme assays at varying inhibitor concentrations are computer-fit to standard enzyme kinetic equations (see I. H. Segel, Enzyme Kinetics, Wiley-Interscience, 1975).
The determination of second order rate constants for irreversible inhibitors was performed by fitting the fluorescence vs time data to the progress equations of Morrison. Morrison, J. F., Mol. Cell. Biophys., 2, pp. 347-368 (1985). Thornberry et al. have published a description of these methods for measurement of rate constants of irreversible inhibitors of ICE. Thornberry, N. A., et al. Biochemistry, 33, pp. 3923-3940 (1994). For compounds where no prior complex formation can be observed kinetically, the second order rate constants (kinact) are derived directly from the slope of the linear plots of kobs vs. [I]. For compounds where prior complex formation to the enzyme can be detected, the hyperbolic plots of kobs vs. [I] are fit to the equation for saturation kinetics to first generate Ki and k′. The second order rate constant kinact is then given by k′/Ki.
as §1, §2

[2] = In vivo bioavailability determination (oral, rat)
Experimental: In Vivo Bioavailability Determination
The drugs (10-100 mg/kg) were dosed orally to rats (10 mL/kg) in ethanol/PEG/water, β-cyclodextrin, labrosol/water or cremophor/water. Blood samples were drawn from the carotid artery at 0.25, 0.50, 1, 1.5, 2, 3, 4, 6, and 8 hours after dosing, centrifuged to plasma and stored at −70° C. until analysis. Aldehyde concentrations were determined using an enzymatic assay. Pharmacokinetic analysis of data was performed by non-linear regression using RStrip (MicroMath Software, UT).

SMILES	Inhibition of apoptosis (U937 cells)	Ki (CPP32)	Ki (TX)	blood levels when administered orally ([1]; orally, detection level 0.03 to 3 μg/ml)	Ki (ICE)	blood levels of drug when dosed orally ([2]; oral 10-100 mg/kg, result in words)	Drug Availability ([2]; oral, dose 45 mg/kg)	Cmax ([2]; plasma, oral, dose 45 mg/kg, read-out: Cmax)	blood levels when administered orally (in words) ([1]; p.o. 50 mg/kg in 0.5% carboxymethylcellulose, blood at 1 and 7 hours)
O=C[C@H](CC(=O)O)NC(=O)[C@@H]1CCCN2C(=O)CC[C@H](NC(=O)c3ccccc3)C(=O)N12 [Compound 214e, [3S(1S,9S)]3-(9-Benzoylamino-6,10-dioxo-1,2,3,4,7,8,9,10-octahydro-6H-pyridazino[1,2-a][1,2]-diazepine-1-carboxamido)-4-oxobutanoic acid]	no inhibition	> 1000 nM	7 ± 1.1 nM	≤ 100 ng/mL	7.5 nM	not detected	0.9%	200 ng/mL	–
CC(C)(C)OC(=O)C[C@@H](C=O)NC(=O)[C@@H]1CCCN2C(=O)CC[C@H](NC(=O)c3ccccc3)C(=O)N12 [Compound 302, [3S(1S,9S)3-(9-Benzoylamino-6,10-dioxo-1,2,3,4,7,8,9,10-octahydro-6H-pyriazino-[1,2-a][1,2]diazapine-1-carboxamido)-amino]-4-oxobutanoic acid tert-butyl ester]	–	–	–	–	–	–	–	–	detectable blood levels
